Square brackets hold non-standard residues; d marks the D form. Peptide text beside a SMILES is read from it. * marks the point of attachment. ξ: configuration not given here. Dansyl = CN(C)c1cccc2c(S(=O)(=O)*)cccc12; ξL = CC(C)CC(N)C(=O)O

The experiment relates to receptor labeled by the radioiodinated analogue of 1 (4, [125I]-YLFQPQRF-NH2); neuropeptide FF receptor. As to the kind of experiment: Competitive radioligand binding against 4 ([125I]Y8F-amide). As to conditions: mixture-based positional scanning; difference from averaged radioligand displacement of whole library (0); about 80 a.u. = 10-fold change in Ki. For orientation: In a radioligand displacement assay an active substance lowers the binding of a labelled ligand.
As for `CN(C)c1cccc2c(S(=O)(=O)N3CCC[C@H]3C(=O)N[C@@H](Cc3cnc[nH]3)C(=O)N[C@@H](CCCNC(=N)N)C(N)=O)cccc12` [Dansyl-PHR-amide] (Dansyl-Pro-His-Arg-NH2), the “Relative Binding Index (RBI)” value is −54 a.u. In the case of `CN(C)c1cccc2c(S(=O)(=O)N[C@@H](CCC(N)=O)C(=O)N[C@@H](CCCNC(=N)N)C(=O)N[C@@H](CCCNC(=N)N)C(N)=O)cccc12` [Dansyl-QRR-amide] (Dansyl-Gln-Arg-Arg-NH2), the “Relative Binding Index (RBI)” value is reported as 20 a.u. For `CN(C)c1cccc2c(S(=O)(=O)N[C@@H](Cc3c[nH]c4ccccc34)C(=O)N[C@@H](CC(N)=O)C(=O)N[C@@H](CCCNC(=N)N)C(N)=O)cccc12` [Dansyl-WNR-amide] (Dansyl-Trp-Asn-Arg-NH2) the value was 10 a.u; for `CC(C)C[C@H](NC(=O)CNS(=O)(=O)c1cccc2c(N(C)C)cccc12)C(=O)N[C@@H](CCCNC(=N)N)C(N)=O` [Dansyl-GLR-amide] (Dansyl-Gly-Leu-Arg-NH2), 17 a.u. As to `CN(C)c1cccc2c(S(=O)(=O)N[C@@H](Cc3c[nH]c4ccccc34)C(=O)N[C@@H](CCC(=O)O)C(=O)N[C@@H](CCCNC(=N)N)C(N)=O)cccc12` [Dansyl-WER-amide] (Dansyl-Trp-Glu-Arg-NH2), the “Relative Binding Index (RBI)” value is on record as 9 a.u. With `CN(C)c1cccc2c(S(=O)(=O)N[C@@H](CC(=O)O)C(=O)N[C@@H](CCCCN)C(=O)N[C@@H](CCCNC(=N)N)C(N)=O)cccc12` [Dansyl-DKR-amide] (Dansyl-Asp-Lys-Arg-NH2), the “Relative Binding Index (RBI)” value is −8 a.u. For `CN(C)c1cccc2c(S(=O)(=O)N[C@@H](CCCCN)C(=O)N[C@@H](CCC(=O)O)C(=O)N[C@@H](CCCNC(=N)N)C(N)=O)cccc12` [Dansyl-KER-amide] (Dansyl-Lys-Glu-Arg-NH2) the value was 25 a.u; for `C[C@@H](O)[C@H](NC(=O)[C@H](Cc1ccc(O)cc1)NS(=O)(=O)c1cccc2c(N(C)C)cccc12)C(=O)N[C@@H](CCCNC(=N)N)C(N)=O` [Dansyl-YTR-amide] (Dansyl-Tyr-Thr-Arg-NH2), 13 a.u.

For the compound `CN(C)c1cccc2c(S(=O)(=O)N[C@@H](CCCNC(=N)N)C(=O)N[C@@H](CCCCN)C(=O)N[C@@H](CCCNC(=N)N)C(N)=O)cccc12` [Dansyl-RKR-amide] (Dansyl-Arg-Lys-Arg-NH2), the “Relative Binding Index (RBI)” value is 4 a.u. Turning to `CC[C@H](C)[C@H](NC(=O)[C@H](CCCNC(=N)N)NS(=O)(=O)c1cccc2c(N(C)C)cccc12)C(=O)N[C@@H](CCCNC(=N)N)C(N)=O` [Dansyl-RIR-amide] (Dansyl-Arg-Ile-Arg-NH2), the “Relative Binding Index (RBI)” value is given as 13 a.u. With `CC(C)[C@H](NC(=O)[C@H](CCCNC(=N)N)NS(=O)(=O)c1cccc2c(N(C)C)cccc12)C(=O)N[C@@H](CCCNC(=N)N)C(N)=O` [Dansyl-RVR-amide] (Dansyl-Arg-Val-Arg-NH2) the figure was 2 a.u; with `CN(C)c1cccc2c(S(=O)(=O)N3CCC[C@H]3C(=O)N3CCC[C@H]3C(=O)N[C@@H](CCCNC(=N)N)C(N)=O)cccc12` [Dansyl-PPR-amide] (Dansyl-Pro-Pro-Arg-NH2), −45 a.u; with `CN(C)c1cccc2c(S(=O)(=O)N[C@@H](CCCCN)C(=O)N[C@@H](Cc3c[nH]c4ccccc34)C(=O)N[C@@H](CCCNC(=N)N)C(N)=O)cccc12` [Dansyl-KWR-amide] (Dansyl-Lys-Trp-Arg-NH2), 34 a.u.

Turning to `CSCC[C@H](NS(=O)(=O)c1cccc2c(N(C)C)cccc12)C(=O)N[C@@H](CC(=O)O)C(=O)N[C@@H](CCCNC(=N)N)C(N)=O` [Dansyl-MDR-amide] (Dansyl-Met-Asp-Arg-NH2), the “Relative Binding Index (RBI)” value is listed as −62 a.u. As for `CN(C)c1cccc2c(S(=O)(=O)N[C@@H](CCCNC(=N)N)C(=O)N[C@@H](CO)C(=O)N[C@@H](CCCNC(=N)N)C(N)=O)cccc12` [Dansyl-RSR-amide] (Dansyl-Arg-Ser-Arg-NH2), the “Relative Binding Index (RBI)” value came out at 27 a.u. In the case of `CN(C)c1cccc2c(S(=O)(=O)N[C@@H](CCCCN)C(=O)N[C@@H](Cc3ccccc3)C(=O)N[C@@H](CCCNC(=N)N)C(N)=O)cccc12` [Dansyl-KFR-amide] (Dansyl-Lys-Phe-Arg-NH2), the “Relative Binding Index (RBI)” value is recorded as 23 a.u.

Take `CC(C)C[C@H](NS(=O)(=O)c1cccc2c(N(C)C)cccc12)C(=O)N[C@@H](Cc1ccccc1)C(=O)N[C@@H](CCCNC(=N)N)C(N)=O` [Dansyl-LFR-amide] (Dansyl-Leu-Phe-Arg-NH2): the “Relative Binding Index (RBI)” value was −33 a.u. With `CSCC[C@H](NC(=O)[C@H](CCC(=O)O)NS(=O)(=O)c1cccc2c(N(C)C)cccc12)C(=O)N[C@@H](CCCNC(=N)N)C(N)=O` [Dansyl-EMR-amide] (Dansyl-Glu-Met-Arg-NH2), the “Relative Binding Index (RBI)” value is 17 a.u. `CC[C@H](C)[C@H](NS(=O)(=O)c1cccc2c(N(C)C)cccc12)C(=O)N[C@@H](CCCNC(=N)N)C(=O)N[C@@H](CCCNC(=N)N)C(N)=O` [Dansyl-IRR-amide] (Dansyl-Ile-Arg-Arg-NH2): the “Relative Binding Index (RBI)” value is reported as −12 a.u. For `CN(C)c1cccc2c(S(=O)(=O)N[C@@H](Cc3c[nH]cn3)C(=O)N[C@@H](Cc3ccc(O)cc3)C(=O)N[C@@H](CCCNC(=N)N)C(N)=O)cccc12` [Dansyl-HYR-amide] (Dansyl-His-Tyr-Arg-NH2), the “Relative Binding Index (RBI)” value stood at 16 a.u. For the compound `CC[C@H](C)[C@H](NC(=O)[C@H](CCSC)NS(=O)(=O)c1cccc2c(N(C)C)cccc12)C(=O)N[C@@H](CCCNC(=N)N)C(N)=O` [Dansyl-MIR-amide] (Dansyl-Met-Ile-Arg-NH2), the “Relative Binding Index (RBI)” value was −37 a.u. Take `C[C@@H](O)[C@H](NC(=O)[C@H](CCCCN)NS(=O)(=O)c1cccc2c(N(C)C)cccc12)C(=O)N[C@@H](CCCNC(=N)N)C(N)=O` [Dansyl-KTR-amide] (Dansyl-Lys-Thr-Arg-NH2): the “Relative Binding Index (RBI)” value was determined as 30 a.u. Regarding `CN(C)c1cccc2c(S(=O)(=O)N[C@@H](CCCNC(=N)N)C(=O)N[C@@H](CC(=O)O)C(=O)N[C@@H](CCCNC(=N)N)C(N)=O)cccc12` [Dansyl-RDR-amide] (Dansyl-Arg-Asp-Arg-NH2), the “Relative Binding Index (RBI)” value was −11 a.u.

With `CN(C)c1cccc2c(S(=O)(=O)N[C@@H](Cc3c[nH]c4ccccc34)C(=O)N[C@@H](Cc3c[nH]cn3)C(=O)N[C@@H](CCCNC(=N)N)C(N)=O)cccc12` [Dansyl-WHR-amide] (Dansyl-Trp-His-Arg-NH2), the “Relative Binding Index (RBI)” value came out at 3 a.u.

With `CN(C)c1cccc2c(S(=O)(=O)N[C@@H](CO)C(=O)N[C@@H](CO)C(=O)N[C@@H](CCCNC(=N)N)C(N)=O)cccc12` [Dansyl-SSR-amide] (Dansyl-Ser-Ser-Arg-NH2), the “Relative Binding Index (RBI)” value is given as 37 a.u. Regarding `CN(C)c1cccc2c(S(=O)(=O)N[C@@H](CCC(=O)O)C(=O)N[C@@H](Cc3cnc[nH]3)C(=O)N[C@@H](CCCNC(=N)N)C(N)=O)cccc12` [Dansyl-EHR-amide] (Dansyl-Glu-His-Arg-NH2), the “Relative Binding Index (RBI)” value was 11 a.u. With `CCC(C)C(NC(=O)C(Cc1ccccc1)NS(=O)(=O)c1cccc2c(N(C)C)cccc12)C(=O)NC(CCCNC(=N)N)C(N)=O` (stereo not drawn) [Dansyl-FIR-amide] (Dansyl-Phe-Ile-Arg-NH2; configuration not given here) the figure was 16 a.u; with `CSCC[C@H](NC(=O)[C@@H](NS(=O)(=O)c1cccc2c(N(C)C)cccc12)C(C)C)C(=O)N[C@@H](CCCNC(=N)N)C(N)=O` [Dansyl-VMR-amide] (Dansyl-Val-Met-Arg-NH2), −4 a.u; with `CN(C)c1cccc2c(S(=O)(=O)N[C@@H](CCCNC(=N)N)C(=O)N[C@@H](CCCNC(=N)N)C(=O)N[C@@H](CCCNC(=N)N)C(N)=O)cccc12` [Dansyl-RRR-amide] (Dansyl-Arg-Arg-Arg-NH2), 5 a.u. `CN(C)c1cccc2c(S(=O)(=O)N[C@@H](CO)C(=O)N[C@@H](CC(N)=O)C(=O)N[C@@H](CCCNC(=N)N)C(N)=O)cccc12` [Dansyl-SNR-amide] (Dansyl-Ser-Asn-Arg-NH2): the “Relative Binding Index (RBI)” value is given as 18 a.u.

Turning to `C[C@H](NS(=O)(=O)c1cccc2c(N(C)C)cccc12)C(=O)N[C@@H](CCC(=O)O)C(=O)N[C@@H](CCCNC(=N)N)C(N)=O` [Dansyl-AER-amide] (Dansyl-Ala-Glu-Arg-NH2), the “Relative Binding Index (RBI)” value was 12 a.u. For `CN(C)c1cccc2c(S(=O)(=O)N[C@@H](Cc3ccc(O)cc3)C(=O)N[C@@H](CCC(N)=O)C(=O)N[C@@H](CCCNC(=N)N)C(N)=O)cccc12` [Dansyl-YQR-amide] (Dansyl-Tyr-Gln-Arg-NH2), the “Relative Binding Index (RBI)” value was 21 a.u. As for `C[C@H](NS(=O)(=O)c1cccc2c(N(C)C)cccc12)C(=O)N[C@@H](Cc1ccccc1)C(=O)N[C@@H](CCCNC(=N)N)C(N)=O` [Dansyl-AFR-amide] (Dansyl-Ala-Phe-Arg-NH2), the “Relative Binding Index (RBI)” value is recorded as 11 a.u. Take `CC(C)[C@H](NS(=O)(=O)c1cccc2c(N(C)C)cccc12)C(=O)N[C@@H](CO)C(=O)N[C@@H](CCCNC(=N)N)C(N)=O` [Dansyl-VSR-amide]: the “Relative Binding Index (RBI)” value is listed as 16 a.u. For `CN(C)c1cccc2c(S(=O)(=O)N[C@@H](Cc3cnc[nH]3)C(=O)N[C@@H](CCC(N)=O)C(=O)N[C@@H](CCCNC(=N)N)C(N)=O)cccc12` [Dansyl-HQR-amide] (Dansyl-His-Gln-Arg-NH2) the value was 30 a.u. With `CC(C)CC(NC(=O)[C@H](CCCCN)NS(=O)(=O)c1cccc2c(N(C)C)cccc12)C(=O)N[C@@H](CCCNC(=N)N)C(N)=O` (some centres unmarked) [Dansyl-KLR-amide] (Dansyl-Lys-[ξL]-Arg-NH2) the figure was 16 a.u. For `CN(C)c1cccc2c(S(=O)(=O)N[C@@H](CC(=O)O)C(=O)N[C@@H](CCCNC(=N)N)C(=O)N[C@@H](CCCNC(=N)N)C(N)=O)cccc12` [Dansyl-DRR-amide] (Dansyl-Asp-Arg-Arg-NH2), the “Relative Binding Index (RBI)” value is on record as −7 a.u.

Take `CN(C)c1cccc2c(S(=O)(=O)N[C@@H](CCCCN)C(=O)N[C@@H](CO)C(=O)N[C@@H](CCCNC(=N)N)C(N)=O)cccc12` [Dansyl-KSR-amide] (Dansyl-Lys-Ser-Arg-NH2): the “Relative Binding Index (RBI)” value came out at 45 a.u.

(Values after US6960574B2, “Antagonists of RF-amide neuropeptides” (University of Florida, priority 2002, dated 2005).)
